Type in all cases: cell-based, Erythrocyte
A short description of data set [1]: Cytotoxicity against human erythrocytes assessed as hemolytic activity after 60 mins. The following applies: read-out: HD50.
The nature of data set [2]: Cytotoxicity against human erythrocytes assessed as hemolytic activity at 50 ug/ml after 60 mins. The following applies: read-out: Activity.
The nature of data set [3]: Cytotoxicity against human erythrocytes assessed as hemolytic activity at 100 ug/ml after 60 mins. The conditions noted are these: for Activity: erythrocyte, 1 h.
Data set [4] in a line: Cytotoxicity against human erythrocytes assessed as hemolytic activity at 75 ug/ml after 60 mins.
Data set [5] in a line: Cytotoxicity against human erythrocytes assessed as hemolytic activity at 30 ug/ml after 60 mins. The conditions noted are these: read-out: Activity.
Data set [6] in a line: Cytotoxicity against human erythrocytes assessed as hemolytic activity at 40 ug/ml after 60 mins. The conditions noted are these: read-out: Activity.

With `CC(=O)O[C@@H]1[C@@H](O)[C@@H](O)[C@H](OC[C@H]2O[C@@H](O[C@H]3CC[C@@]4(C)C(=CC[C@H]5[C@@H]6C[C@@H]7O[C@]8(CC[C@@H](C)CO8)[C@@H](C)[C@@H]7[C@@]6(C)CC[C@@H]54)C3)[C@H](O)[C@@H](O)[C@@H]2O)O[C@H]1C`, in data set [1], the HC50 at 1 h is greater than 50 µM. In addition, in data set [2], the hemolysis at 1 h, 50 ug/ml came to 12%.

Consider `CCCCCCCCCCCC(=O)O[C@H]1C[C@@H]2[C@H](CC[C@]3(C)[C@@H]4[C@H](C[C@@H]23)O[C@]2(CC[C@@H](C)CO2)[C@H]4C)[C@@]2(C)C[C@@H](O)[C@H](O[C@@H]3O[C@H](CO)[C@@H](O[C@H]4O[C@H](C)[C@@H](O)[C@H](O)[C@@H]4O)[C@H](O)[C@H]3O[C@H]3O[C@H](C)[C@@H](O)[C@H](O)[C@@H]3O)C[C@H]12`, for which the hemolysis at 1 h, 100 ug/ml in data set [3] (human erythrocytes, read-out: Activity) stood at 8.5%. The HC50 at 1 h in data set [1] was greater than 100 µM.

As to `CO[C@]1(CCC(C)CO[C@@H]2O[C@H](CO)[C@@H](O)[C@H](O)[C@H]2O)O[C@H]2C[C@H]3[C@@H]4CC=C5C[C@@H](O[C@@H]6O[C@H](CO)[C@@H](O[C@H]7O[C@H](C)[C@@H](O)[C@H](O)[C@@H]7O)[C@H](O)[C@H]6O[C@H]6O[C@H](C)[C@@H](O)[C@H](O)[C@@H]6O)[C@H](O)C[C@]5(C)[C@H]4CC[C@]3(C)[C@H]2[C@@H]1C` (stereo partly specified), the Activity entry in data set [3] was “Not Active”. Further, in data set [1], the HC50 at 1 h was greater than 100 µM.

In the case of `CO[C@]1(CCC(C)CS[C@@H]2O[C@H](CO)[C@@H](O)[C@H](O)[C@H]2O)O[C@H]2C[C@H]3[C@@H]4CC=C5C[C@@H](O[C@@H]6O[C@H](CO)[C@@H](O[C@H]7O[C@H](C)[C@@H](O)[C@H](O)[C@@H]7O)[C@H](O)[C@H]6O[C@H]6O[C@H](C)[C@@H](O)[C@H](O)[C@@H]6O)[C@H](O)C[C@]5(C)[C@H]4CC[C@]3(C)[C@H]2[C@@H]1C` (stereo partly specified), the Activity entry in data set [3] is listed as “Not Active”. Moreover, in data set [1], the HC50 at 1 h was greater than 100 µM.

For `CC(=O)OC[C@H]1O[C@@H](O[C@H]2CC[C@@]3(C)C(=CC[C@H]4[C@@H]5C[C@@H]6O[C@]7(CC[C@@H](C)CO7)[C@@H](C)[C@@H]6[C@@]5(C)CC[C@@H]43)C2)[C@H](O[C@@H]2O[C@@H](C)[C@H](O)[C@@H](O)[C@H]2O)[C@@H](O)[C@@H]1O`, in data set [1], the HC50 at 1 h was greater than 75 µM. Moreover, the hemolysis at 1 h, 75 ug/ml in data set [4] (human, human erythrocytes, read-out: Activity) is 29%.

For the molecule `CC(=O)O[C@H]1C[C@@H]2[C@H](CC[C@]3(C)[C@@H]4[C@H](C[C@@H]23)O[C@]2(CC[C@@H](C)CO2)[C@H]4C)[C@@]2(C)C[C@@H](O)[C@H](O[C@@H]3O[C@H](CO)[C@@H](O[C@H]4O[C@H](C)[C@@H](O)[C@H](O)[C@@H]4O)[C@H](O)[C@H]3O[C@H]3O[C@H](C)[C@@H](O)[C@H](O)[C@@H]3O)C[C@H]12`, in data set [1], the HC50 at 1 h is greater than 30 µM. In addition, in data set [5], the hemolysis at 1 h, 30 ug/ml amounted to 34%.

With `CC(=O)OC[C@H]1O[C@@H](O[C@H]2CC[C@@]3(C)C(=CC[C@H]4[C@@H]5C[C@@H]6O[C@]7(CC[C@@H](C)CO7)[C@@H](C)[C@@H]6[C@@]5(C)CC[C@@H]43)C2)[C@H](O[C@@H]2O[C@@H](C)[C@H](OC(C)=O)[C@@H](O)[C@H]2O)[C@@H](O)[C@@H]1O`, the HC50 at 1 h in data set [1] was greater than 75 µM. The hemolysis % in data set [4] (erythrocyte) is reported as 8%.

Turning to `C[C@@H]1CC[C@@]2(OC1)O[C@H]1C[C@H]3[C@@H]4CC=C5C[C@@H](O[C@@H]6O[C@H](CO)[C@@H](O)[C@H](O[C@@H]7O[C@@H](C)[C@H](O)[C@@H](O)[C@H]7O)[C@H]6O)CC[C@]5(C)[C@H]4CC[C@]3(C)[C@H]1[C@@H]2C` [POLYPHILLIN C], the HC50 at 1 h in data set [1] is greater than 40 µM. In data set [6], the hemolysis at 1 h, 40 ug/ml worked out at 15%.

For the origin of these results see ChEMBL document CHEMBL1147199, “Exploration of the correlation between the structure, hemolytic activity, and cytotoxicity of steroid saponins” (Bioorg Med Chem, 2007).
